Experimental data taken from ChEMBL document CHEMBL1909046, “DrugMatrix in vitro pharmacology data”.

Experiments:
[1] = target: T1, Alpha-1B adrenergic receptor (Rattus norvegicus, UniProt P15823); assay: DRUGMATRIX: Alpha-1B adrenergic receptor radioligand binding (ligand: prazosin); assay type: cell membranes, Wistar, Liver, Membrane; details: Not Active = under 50% inhibition at 10 µM
T1 sequence (P15823 whole entry): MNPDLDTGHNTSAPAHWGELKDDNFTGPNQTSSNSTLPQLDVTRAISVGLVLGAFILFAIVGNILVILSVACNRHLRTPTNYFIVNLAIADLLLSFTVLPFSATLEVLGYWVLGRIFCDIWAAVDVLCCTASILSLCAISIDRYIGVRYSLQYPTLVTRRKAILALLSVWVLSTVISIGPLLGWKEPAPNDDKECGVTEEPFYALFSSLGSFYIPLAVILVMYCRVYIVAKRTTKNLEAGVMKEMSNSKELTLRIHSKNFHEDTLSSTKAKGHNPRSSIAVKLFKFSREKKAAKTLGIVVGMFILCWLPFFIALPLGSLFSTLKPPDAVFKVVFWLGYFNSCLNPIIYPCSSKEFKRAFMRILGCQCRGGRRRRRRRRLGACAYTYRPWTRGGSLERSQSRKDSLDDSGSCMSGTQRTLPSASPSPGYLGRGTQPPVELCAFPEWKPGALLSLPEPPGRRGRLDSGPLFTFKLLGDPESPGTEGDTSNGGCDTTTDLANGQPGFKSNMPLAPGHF

[2] = target: Beta-1 adrenergic receptor (Homo sapiens, UniProt P08588); assay: DRUGMATRIX: Adrenergic beta1 radioligand binding (ligand: [125I] Cyanopindolol); assay type: cell membranes, CHO-K1, Membrane; details: cho-k1; Not Active = under 50% inhibition at 10 µM
Chain of Beta-1 adrenergic receptor (P08588 whole entry): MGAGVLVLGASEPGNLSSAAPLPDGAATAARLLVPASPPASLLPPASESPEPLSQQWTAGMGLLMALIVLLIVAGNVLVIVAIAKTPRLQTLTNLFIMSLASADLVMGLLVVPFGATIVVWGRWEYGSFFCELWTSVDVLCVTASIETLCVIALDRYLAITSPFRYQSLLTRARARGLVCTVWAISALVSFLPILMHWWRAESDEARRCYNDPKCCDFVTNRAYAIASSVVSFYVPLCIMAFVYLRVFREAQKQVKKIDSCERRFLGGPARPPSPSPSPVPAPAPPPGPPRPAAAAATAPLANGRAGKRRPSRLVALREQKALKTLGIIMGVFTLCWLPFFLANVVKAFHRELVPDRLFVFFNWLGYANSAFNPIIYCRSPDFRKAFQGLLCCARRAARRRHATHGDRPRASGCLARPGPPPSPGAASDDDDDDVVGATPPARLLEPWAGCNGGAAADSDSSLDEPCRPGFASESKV

Insulin receptor = Insulin receptor (Rattus norvegicus, UniProt P15127); assay type: cell membranes, Wistar, Liver, Membrane; note: in other assays of this panel Not Active means under 50% inhibition at 10 µM
Chain of Insulin receptor (P15127 27-759 limits assumed): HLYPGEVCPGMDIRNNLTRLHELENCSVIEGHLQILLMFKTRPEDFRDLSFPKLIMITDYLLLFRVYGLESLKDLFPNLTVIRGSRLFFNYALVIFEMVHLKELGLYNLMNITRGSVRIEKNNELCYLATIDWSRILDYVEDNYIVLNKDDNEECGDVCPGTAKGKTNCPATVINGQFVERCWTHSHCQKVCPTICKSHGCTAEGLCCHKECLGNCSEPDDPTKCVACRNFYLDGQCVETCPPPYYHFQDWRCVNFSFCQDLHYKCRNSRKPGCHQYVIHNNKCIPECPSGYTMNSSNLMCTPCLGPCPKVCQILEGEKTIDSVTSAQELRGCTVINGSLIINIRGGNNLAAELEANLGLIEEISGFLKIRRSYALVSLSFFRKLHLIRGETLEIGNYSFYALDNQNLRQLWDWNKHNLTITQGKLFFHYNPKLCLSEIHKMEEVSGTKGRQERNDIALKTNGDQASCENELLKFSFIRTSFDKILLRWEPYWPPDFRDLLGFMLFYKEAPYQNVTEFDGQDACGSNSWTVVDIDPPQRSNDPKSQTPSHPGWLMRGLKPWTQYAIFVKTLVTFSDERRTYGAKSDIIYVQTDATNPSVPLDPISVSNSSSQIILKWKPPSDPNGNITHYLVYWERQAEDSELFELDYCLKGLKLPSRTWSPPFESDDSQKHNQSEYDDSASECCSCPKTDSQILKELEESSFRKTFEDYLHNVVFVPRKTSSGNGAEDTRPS
Chain of Insulin receptor (P15127 764-1383 limits assumed): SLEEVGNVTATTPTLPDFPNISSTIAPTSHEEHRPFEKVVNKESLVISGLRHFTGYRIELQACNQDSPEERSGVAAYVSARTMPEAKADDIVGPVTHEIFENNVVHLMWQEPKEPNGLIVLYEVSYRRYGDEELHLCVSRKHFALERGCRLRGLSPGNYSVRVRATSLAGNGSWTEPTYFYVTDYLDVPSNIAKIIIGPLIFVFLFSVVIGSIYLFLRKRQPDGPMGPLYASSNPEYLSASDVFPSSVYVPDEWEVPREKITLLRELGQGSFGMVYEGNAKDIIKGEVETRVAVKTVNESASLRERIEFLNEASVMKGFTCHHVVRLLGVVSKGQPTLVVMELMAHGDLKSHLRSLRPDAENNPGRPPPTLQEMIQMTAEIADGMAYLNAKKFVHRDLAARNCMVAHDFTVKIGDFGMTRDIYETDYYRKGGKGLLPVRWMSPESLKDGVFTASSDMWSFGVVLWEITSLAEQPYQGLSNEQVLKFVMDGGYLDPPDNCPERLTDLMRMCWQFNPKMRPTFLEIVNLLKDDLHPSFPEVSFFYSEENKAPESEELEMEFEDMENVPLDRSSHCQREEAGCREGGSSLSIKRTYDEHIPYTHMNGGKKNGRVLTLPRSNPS

[3] = DRUGMATRIX: Leukotriene, BLT (LTB4) radioligand binding (ligand: [3H]LTB4); assay type: cell membranes, Membrane; details: u-937; Not Active = under 50% inhibition at 10 µM
[4] = DRUGMATRIX: Phosphodiesterase PDE4 enzyme inhibition (substrate: [3H]cAMP + cAMP); details: u-937; Not Active = under 50% inhibition at 10 µM

NS(=O)(=O)c1cc(C2(O)NC(=O)c3ccccc32)ccc1Cl (centres undefined) [CHLORTHALIDONE]
Not Active: IC50 [1] | IC50 [2] | IC50 (Insulin receptor) | IC50 [3] | Ki [3] | IC50 [4] | Ki [4]

Cc1c(O)cccc1C(=O)N[C@@H](CSc1ccccc1)[C@H](O)CN1C[C@H]2CCCC[C@H]2C[C@H]1C(=O)NC(C)(C)C
Not Active: IC50 [1] | IC50 (Insulin receptor) | IC50 [3] | Ki [3] | IC50 [4] | Ki [4]

Cn1c(=O)c2c(ncn2C)n(C)c1=O [CAFFEINE]
Not Active: IC50 [1] | IC50 [2] | IC50 (Insulin receptor) | IC50 [3] | Ki [3] | IC50 [4] | Ki [4]

C[C@]12CC[C@@H]3c4ccc(O)cc4CC[C@H]3[C@@H]1C[C@@H](O)[C@@H]2O [ESTRIOL]
Not Active: IC50 [1] | IC50 [2] | IC50 (Insulin receptor) | IC50 [3] | Ki [3] | IC50 [4] | Ki [4]

CCN(CC)CCNC(=O)c1ccc(N)cc1 [PROCAINAMIDE]
Not Active: IC50 [1] | IC50 [2] | IC50 (Insulin receptor) | IC50 [3] | Ki [3] | IC50 [4] | Ki [4]

O=C(O)P(=O)(O)O [FOSCARNET]
Not Active: IC50 [1] | IC50 [2] | IC50 (Insulin receptor) | IC50 [3] | Ki [3] | IC50 [4] | Ki [4]

C[C@H]1[C@H](NC(=O)/C(=N\OC(C)(C)C(=O)O)c2csc(N)n2)C(=O)N1S(=O)(=O)O [AZTREONAM]
Not Active: IC50 [1] | IC50 [2] | IC50 (Insulin receptor) | IC50 [3] | Ki [3] | IC50 [4] | Ki [4]

C[C@H]1COc2c(N3CCN(C)CC3)c(F)cc3c(=O)c(C(=O)O)cn1c23.C[C@H]1COc2c(N3CCN(C)CC3)c(F)cc3c(=O)c(C(=O)O)cn1c23.O [LEVOFLOXACIN]
Not Active: IC50 [1] | IC50 [2] | IC50 (Insulin receptor) | IC50 [3] | Ki [3] | IC50 [4] | Ki [4]

NC(=O)N1c2ccccc2CC(=O)c2ccccc21 [OXCARBAZEPINE]
Not Active: IC50 [1] | IC50 [2] | IC50 (Insulin receptor) | IC50 [3] | Ki [3] | IC50 [4] | Ki [4]

C#C[C@]1(O)CC[C@H]2[C@@H]3CCC4=CC(=O)CC[C@]4(C)[C@H]3CC[C@@]21C [ETHISTERONE]
Not Active: IC50 [1] | IC50 [2] | IC50 (Insulin receptor) | IC50 [3] | Ki [3] | IC50 [4] | Ki [4]

C[S+](C)[O-] [DIMETHYL SULFOXIDE]
Not Active: IC50 [1] | IC50 [2] | IC50 (Insulin receptor) | IC50 [3] | Ki [3] | IC50 [4] | Ki [4]

COc1cc(OC)c(C(=O)CCCN2CCCC2)c(OC)c1 [BUFLOMEDIL]
Not Active: IC50 [1] | IC50 [2] | IC50 (Insulin receptor) | IC50 [3] | Ki [3] | IC50 [4] | Ki [4]

Cc1cc(O)cc(C)c1Cl [CHLOROXYLENOL]
Not Active: IC50 [1] | IC50 [2] | IC50 (Insulin receptor) | IC50 [3] | Ki [3] | IC50 [4] | Ki [4]

COc1ccc2c(c1OC)C(=O)O[C@@H]2[C@H]1c2c(cc3c(c2OC)OCO3)CCN1C [NOSCAPINE]
Not Active: IC50 [1] | IC50 [2] | IC50 (Insulin receptor) | IC50 [3] | Ki [3] | IC50 [4] | Ki [4]

NC12CC3CC(CC(C3)C1)C2 [AMANTADINE]
Not Active: IC50 [1] | IC50 [2] | IC50 (Insulin receptor) | IC50 [3] | Ki [3] | IC50 [4] | Ki [4]
